Test results: patent US20170107207A1, “AMINOPYRAZOLONE DERIVATIVE” (DAIICHI SANKYO COMPANY, LIMITED, priority 2014, published 2017)

Assays:
[1] = system: human lymphoma cell line RAMOS cells; assay: Cell growth inhibition test using RAMOS cell, ATP assay (CellTiter-Glo); assay type: cell-based; details: cultured 3 days, 50% growth inhibition concentration
Protocol: A cell growth inhibition test was carried out by treating human lymphoma cell line RAMOS cells with a test compound for a given period and then counting the number of viable cells by MTT assay or CellTiter-Glo Luminescent Cell Viability Assay (manufactured by Promega Corp.; hereinafter, referred to as ATP assay).
RAMOS cells were inoculated at 4000 cells/40 μL/well to a 384-well plate containing the compound prepared in advance at predetermined concentrations. The cells thus inoculated were cultured at 37° C. for 3 days under 5% CO2. In order to measure a cell survival rate, CellTiter-Glo Reagent was added in an amount corresponding to 1/4 of the amount of the culture solution at the day of cell inoculation and at the final culture date and stirred at room temperature for 2 minutes. Then, luminescence intensity was measured using a plate reader. The cell survival rate was calculated according to the expression given below.
The number of viable cells and luminescence intensity have been confirmed to correlate with each other. Therefore, the rate of cell growth was calculated according to the following expression: Rate of cell growth (T/C %) of a test compound-supplemented well=100×[(B−C)/(A−C)] wherein A represents the luminescence intensity (final culture date) of a test compound-free well; B represents the luminescence intensity (final culture date) of a test compound-containing well; and C represents the luminescence intensity (day of cell inoculation) of a well at the start of contact of the cells with the test compound.
T/C % at each concentration of the test compound was determined. The concentration at which the test compound offered 50% growth rate was calculated as a GI50 value from the growth rates at two points interpolating 50% and the concentrations, and is shown in Table 56.

TIP48/TIP49 complex = biological target: T1, TIP48/TIP49 complex (Homo sapiens, UniProt Q9Y230+Q9Y265); assay: ATPase assay of TIP48/TIP49 complex (ADP-Glo); assay type: biochemical; details: concentration at which the ATPase activity was inhibited by 50%
T1 construct: made in house; host or cells: E. coli
T1 sequence (Q9Y230 whole entry): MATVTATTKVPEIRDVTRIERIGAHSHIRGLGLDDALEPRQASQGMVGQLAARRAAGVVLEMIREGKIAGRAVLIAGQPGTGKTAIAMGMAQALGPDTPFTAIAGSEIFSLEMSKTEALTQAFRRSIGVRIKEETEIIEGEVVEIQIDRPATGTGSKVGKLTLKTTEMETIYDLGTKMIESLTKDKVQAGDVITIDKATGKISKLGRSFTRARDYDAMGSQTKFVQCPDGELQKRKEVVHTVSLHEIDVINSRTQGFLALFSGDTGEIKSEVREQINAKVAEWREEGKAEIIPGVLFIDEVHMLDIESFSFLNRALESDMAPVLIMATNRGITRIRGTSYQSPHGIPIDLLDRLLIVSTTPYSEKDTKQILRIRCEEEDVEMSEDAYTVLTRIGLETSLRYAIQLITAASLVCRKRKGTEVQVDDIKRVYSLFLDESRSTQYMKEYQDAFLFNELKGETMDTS
T1 sequence (Q9Y265 whole entry): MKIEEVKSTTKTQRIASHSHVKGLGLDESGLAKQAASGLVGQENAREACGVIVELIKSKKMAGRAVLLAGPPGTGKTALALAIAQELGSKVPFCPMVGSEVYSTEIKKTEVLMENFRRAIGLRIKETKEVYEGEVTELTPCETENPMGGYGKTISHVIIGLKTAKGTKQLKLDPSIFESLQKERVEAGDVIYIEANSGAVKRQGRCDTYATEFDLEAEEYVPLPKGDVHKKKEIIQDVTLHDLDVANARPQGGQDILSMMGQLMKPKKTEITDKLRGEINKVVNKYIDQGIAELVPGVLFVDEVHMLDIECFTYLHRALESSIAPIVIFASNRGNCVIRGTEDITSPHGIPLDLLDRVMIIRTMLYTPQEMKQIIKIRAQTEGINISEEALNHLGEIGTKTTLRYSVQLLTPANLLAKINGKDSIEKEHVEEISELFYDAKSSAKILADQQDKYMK
Excerpt: The ATPase activity of the TIP48/TIP49 complex can be measured by use of an ATPase assay described below in Test Examples 1 and 2. The ATPase activity of the TIP48/TIP49 complex can be measured, as described below in the Test Examples, for example, by using recombinant human TIP48 and TIP49 proteins (hereinafter, referred to as rTIP48 and rTIP49) and ATP in the presence or absence of a test compound and measuring the amount of ADP formed through hydrolysis by the ATPase activity of the TIP48/TIP49 complex, using ADP-Glo. Alternatively, the ATPase activity of the TIP48/TIP49 complex can be measured by a method described in, for example, J. Mol. Biol. 366, 172-179 (2007).
An ATPase assay of a TIP48/TIP49 complex was conducted using rTIP48 and rTIP49. Human TIP48 and TIP49 DNAs were purchased from Open Biosystems. Human TIP48 and TIP49 cDNAs cloned by PCR using the purchased DNAs were each integrated into plasmids for expression in E. coli and expressed in E. coli to obtain rTIP48 and rTIP49.
A test compound was dissolved at 10 mM using DMSO. The solution was diluted to 10 concentrations as 4-fold serial dilutions from 10 mM using DMSO.
A 2×assay buffer (100 mM Tris-HCl, pH 7.5, 100 mM NaCl, 40 mM MgCl2, 2 mM DTT, 20 μM ATP, and 0.2 mg/mL BSA) was dispensed at 24.5 μL/well to a 384-well assay plate.
Test compound solutions were dispensed thereto at 1 μL/well. Subsequently, the solution in each well was mixed using a plate mixer.
rTIP48 and rTIP49 were diluted to a concentration of 50 μg/mL using sterilized water. The diluted solution was dispensed at 24.5 μL/well to the 384-well assay plate. Subsequently, the solution in each well was mixed using a plate mixer (final concentration: 24.5 μg/mL) (concentration of each test compound solution: 200 μM, 50 μM, 12.5 μM, 3.12 μM, 0.78 μM, 0.20 μM, 0.049 μM, 0.012 μM, 0.003 μM, and 0.0007 μM; DMSO concentration: 2%).
After the mixing using the plate mixer, the assay plate was left standing at room temperature for 1.5 hours.
5 μL of the solution in each well was transferred to a white assay plate, and ADP-Glo Reagent from ADP-Glo Kinase Assay (Promega Corp., catalog No. V9101) was dispensed thereto at 5 μL/well. After completion of the reaction, the plate was left standing at room temperature for 40 minutes. Kinase Detection Reagent was further dispensed thereto at 5 μL/well, and the plate was left standing at room temperature for 30 minutes. Then, luminescence intensity was measured using a plate reader.
The ATPase inhibitory activity was calculated according to the expression given below.
The luminescence intensity of a well supplemented with the test compound and the TIP48/TIP49 complex was defined as A. The luminescence intensity of a well supplemented with only the TIP48/TIP49 complex was defined as B. The luminescence intensity of a well supplemented with neither the test compound nor the TIP48/TIP49 complex was defined as C. The ratio between the test compound-supplemented group and the test compound-nonsupplemented group (T/C value) was determined according to the following calculation expression:
The dose-response curve was calculated using GraphPad Prism 4 from the concentration of each of the serially diluted test compounds and the ATPase inhibitory activity (%) at this concentration.

| Structure (SMILES) | IC50 (TIP48/TIP49 complex) | GI50 ([1]; Homo sapiens, Ramos, 72 h) | GI50 [1] | GI50 ([1]; Homo sapiens, 72 h) |
| --- | --- | --- | --- | --- |
| CCOc1cc(F)c(Cl)cc1C(=O)NCC(C)(C)C(C)C(=O)Nc1c(COC)n(C)n(-c2ccccc2)c1=O (centres unmarked) [Example 159, 5-Chloro-2-ethoxy-4-fluoro-N-(4-{[5-(methoxymethyl)-1-methyl-3-oxo-2-phenyl-2,3-dihydro-1H-pyrazol-4-yl]amino}-2,2,3-trimethyl-4-oxobutyl)benzamide] | 0.077 µM |  |  | 0.84 µM |
| CCOc1cc(F)c(Cl)cc1C(=O)NCC(C)(C)CC(=O)Nc1c(CCN(C)CCF)n(C)n(-c2ccccc2)c1=O [Example 37, 5-Chloro-2-ethoxy-4-fluoro-N-{4-[(5-{2-[2-fluoroethyl(methyl)amino]ethyl}-1-methyl-3-oxo-2-phenyl-2,3-dihydro-1H-pyrazol-4-yl)amino]-2,2-dimethyl-4-oxobutyl}benzamide] | 0.038 µM | 0.12 µM |  |  |
| CCOc1ncc(Cl)cc1C(=O)NCC(C)(C)CC(=O)Nc1c([C@@H](C)CN(C)C)n(C)n(-c2ccccc2)c1=O [Example 72, 5-Chloro-N-[4-({5-[(1S)-2-(dimethylamino)-1-methylethyl]-1-methyl-3-oxo-2-phenyl-2,3-dihydro-1H-pyrazol-4-yl}amino)-2,2-dimethyl-4-oxobutyl]-2-ethoxypyridine-3-carboxamide] | 0.08 µM | 0.51 µM |  |  |
| CCOc1ncc(Cl)cc1C(=O)NCC(C)(C)CC(=O)Nc1c(C(CN(C)C)OC)n(C)n(-c2ccccc2)c1=O (single isomer, unassigned; (+)) [Example 83, (+)-5-Chloro-N-[4-({5-[2-(dimethylamino)-1-methoxyethyl]-1-methyl-3-oxo-2-phenyl-2,3-dihydro-1H-pyrazol-4-yl}amino)-2,2-dimethyl-4-oxobutyl]-2-ethoxypyridine-3-carboxamide] | 0.065 µM |  | 0.49 µM |  |
| COCOc1cc(F)c(Cl)cc1C(=O)NCC(C)(C)CC(=O)Nc1c(COC)n(C)n(-c2ccccc2)c1=O [Example 116, 5-Chloro-4-fluoro-2-(methoxymethoxy)-N-(4-{[5-(methoxymethyl)-1-methyl-3-oxo-2-phenyl-2,3-dihydro-1H-pyrazol-4-yl]amino}-2,2-dimethyl-4-oxobutyl)benzamide] | 0.014 µM | 0.14 µM |  |  |
| CCOc1ncc(Cl)cc1C(=O)NCC(C)(C)CC(=O)Nc1c(C(C)NC)n(C)n(-c2ccccc2)c1=O (centres unmarked) [Example 2, 5-Chloro-N-[2,2-dimethyl-4-({1-methyl-5-[1-(methylamino)ethyl]-3-oxo-2-phenyl-2,3-dihydro-1H-pyrazol-4-yl}amino)-4-oxobutyl]-2-ethoxypyridine-3-carboxamide] | 0.16 µM | 0.25 µM |  |  |
| CCOc1cc(F)c(Cl)cc1C(=O)NCC(C)(C)CC(=O)Nc1c(C(C)CN(C)C)n(C)n(-c2ccccc2)c1=O (centres unmarked) [Example 69, 5-Chloro-N-[4-({5-[2-(dimethylamino)-1-methylethyl]-1-methyl-3-oxo-2-phenyl-2,3-dihydro-1H-pyrazol-4-yl}amino)-2,2-dimethyl-4-oxobutyl]-2-ethoxy-4-fluorobenzamide] | 0.065 µM | 0.16 µM |  |  |
| CCOc1ccc(Cl)cc1C(=O)NCC(C)(C)CC(=O)Nc1c(C(C)OC)n(C)n(-c2ccccc2)c1=O (centres unmarked) [Example 125, 5-Chloro-2-ethoxy-N-(4-{[5-(1-methoxyethyl)-1-methyl-3-oxo-2-phenyl-2,3-dihydro-1H-pyrazol-4-yl]amino}-2,2-dimethyl-4-oxobutyl)benzamide] | 0.036 µM | 0.14 µM |  |  |

More lines, in order of falling IC50 (TIP48/TIP49 complex), values ahead:

| IC50 (TIP48/TIP49 complex) | GI50 ([1]; Homo sapiens, Ramos, 72 h) | GI50 [1] | Structure (SMILES) | GI50 ([1]; Homo sapiens, 72 h) |
| --- | --- | --- | --- | --- |
| 0.17 µM | 0.13 µM |  | CCOc1ccc(Cl)cc1C(=O)NCC(C)(C)CC(=O)Nc1c(C(C)NC)n(C)n(-c2ccccc2)c1=O (centres unmarked) [Example 1, 5-Chloro-N-[2,2-dimethyl-4-({1-methyl-5-[1-(methylamino)ethyl]-3-oxo-2-phenyl-2,3-dihydro-1H-pyrazol-4-yl}amino)-4-oxobutyl]-2-ethoxybenzamide] |  |
| 0.15 µM | 0.5 µM |  | CCOc1ccc(Cl)cc1C(=O)NCC(CF)(CF)CC(=O)Nc1c(CCN(C)C)n(C)n(-c2ccccc2)c1=O [Example 62, 5-Chloro-N-[4-({5-[2-(dimethylamino)ethyl]-1-methyl-3-oxo-2-phenylpyrazolo-4-yl}amino)-2,2-bis(fluoromethyl)-4-oxobutyl]-2-ethoxybenzamide] |  |
| 0.081 µM | 0.5 µM |  | CCOc1ccc(Cl)cc1C(=O)NCC(C)(C)CC(=O)Nc1c(CCC(=O)N2CCCC2)n(C)n(-c2ccccc2)c1=O [Example 133, 5-Chloro-N-(2,2-dimethyl-4-{[1-methyl-3-oxo-5-(3-oxo-3-pyrrolidin-1-ylpropyl)-2-phenyl-2,3-dihydro-1H-pyrazol-4-yl]amino}-4-oxobutyl)-2-ethoxybenzamide] |  |
| 0.077 µM | 0.48 µM |  | CCOc1ccc(Cl)cc1C(=O)NCC(C)(C)CC(=O)Nc1c(CCN(C)C)n(C)n(-c2ccccc2F)c1=O [Example 45, 5-Chloro-N-[4-({3-[2-(dimethylamino)ethyl]-1-(2-fluorophenyl)-2-methyl-5-oxopyrazol-4-yl}amino)-2,2-dimethyl-4-oxobutyl]-2-ethoxybenzamide] |  |
| 0.052 µM | 0.39 µM |  | CNC(C)(C)Cc1c(NC(=O)CC(C)(C)CNC(=O)c2cc(Cl)cc3cc(C)oc23)c(=O)n(-c2ccccc2)n1C [Example 61, 5-Chloro-N-[2,2-dimethyl-4-({1-methyl-5-[2-methyl-2-(methylamino)propyl]-3-oxo-2-phenyl-2,3-dihydro-1H-pyrazol-4-yl}amino)-4-oxobutyl]-2-methylbenzofuran-7-carboxamide] |  |
| 0.05 µM | 0.21 µM |  | Cc1cc2cc(Cl)cc(C(=O)NCC(C)(C)CC(=O)Nc3c(C[C@@H](C)N(C)C)n(C)n(-c4ccccc4)c3=O)c2o1 [Example 50, 5-Chloro-N-[4-({5-[(2R)-2-(dimethylamino)propyl]-1-methyl-3-oxo-2-phenyl-2,3-dihydro-1H-pyrazol-4-yl}amino)-2,2-dimethyl-4-oxobutyl]-2-methylbenzofuran-7-carboxamide] |  |
| 0.033 µM | 0.13 µM |  | CCOc1ccc(Cl)cc1C(=O)NCC(C)(C)CC(=O)Nc1c(CCNCC(F)(F)F)n(C)n(-c2ccccc2)c1=O [Example 26, 5-Chloro-N-[2,2-dimethyl-4-({1-methyl-3-oxo-2-phenyl-5-[2-(2,2,2-trifluoroethylamino)ethyl]pyrazol-4-yl}amino)-4-oxobutyl]-2-ethoxybenzamide] |  |
| 0.033 µM | 0.31 µM |  | CCOc1ccc(Cl)cc1C(=O)NCC(C)(C)CC(=O)Nc1c(CCC(F)(F)F)n(C)n(-c2ccccc2)c1=O [Example 158, 5-Chloro-N-(2,2-dimethyl-4-{[1-methyl-3-oxo-2-phenyl-5-(3,3,3-trifluoropropyl)pyrazol-4-yl]amino}-4-oxobutyl)-2-ethoxybenzamide] |  |
